# From PubChem BioAssay (NCI)
#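 Step 1: Grow cells in 96-well plates. Step 2: Expose to compound for 48 hours at 5 concentrations. Step 3: Interpolate endpoints linearly; if unreached, use highest concentration. GI50 = concentration required for 50% inhibition of growth. TGI denotes the concentration required for complete inhibition of growth.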
# System: SN12C renal
# Experiment: DTP human tumour cell line panel, 48 h
SMILES,TGI [µM],GI50 [µM]
O=C(Nc1cc(Cl)c(Cl)cc1Cl)C(=O)C1C=CCS1(=O)=O (stereo unspecified),> 100,
CCNC(=O)CCN(C(=O)O)S(=O)(=O)c1ccc(NC(=O)c2ccccc2)cc1,> 100,
O=C(/C=C/c1ccc([N+](=O)[O-])o1)N1CCN(Cc2ccccc2)CC1,21.3,
CC1C[C@@]2(c3ccccc3)C(=O)CCC[C@H]2N1 (stereo partly specified),> 100,
O=[N+]([O-])c1cccc(/C=N\NS(=O)(=O)c2ccc(Cl)cc2)c1O,> 100,
CC(C)c1ccc(C(=O)Nc2nc3ccc(O)cc3s2)cc1,> 100,2.18
CC1=C(C(=O)Nc2ccccc2C)C(c2ccc(Cl)c(Cl)c2)C(C(=O)Nc2ccccc2C)=C(C)N1,47.2,
CCCCOC(=O)NC(=O)c1cn(CCCOC(=O)CCCCCCCCC(=O)OCCCn2cc(C(=O)NC(=O)OCCCC)c(=O)[nH]c2=O)c(=O)[nH]c1=O,> 100,
Cc1[nH]c2ccccc2c1C1Cc2ccccc2N1C(=O)/C=C\C(=O)O (stereo unspecified),> 100,
CCN(CC)CCC(=O)NC1c2ccc(Cl)cc2Oc2c(C)cccc21 (stereo unspecified),35.5,

# System: SW-620 colon
# Experiment: DTP human tumour cell line panel, 48 h
SMILES,GI50 [µM],TGI [µM]
COc1cc(/C=C/C(=O)CC(=O)/C=C/c2cc(OC)c(OC)c(OC)c2)cc(OC)c1OC,2.56,11.3
c1ccc2c(c1)CCC/C2=N\OCC1CO1 (stereo unspecified),,> 100
CC/C(C)=C1\CCC(CN2CCOCC2)C1=O (stereo unspecified),,34.5
COC(=O)C1C(C(=O)OC)C2(OC)c3ccccc3-c3ccccc3C12 (stereo unspecified),,> 100
O=C1OC(CC(=O)c2ccc(Cl)c(Cl)c2)C(Cl)=C1Cl (stereo unspecified),,> 100
CC(=O)c1cccc(N2COC(C)(C)c3nc4ccccc4n3C2)c1,,> 100
O=[N+]([O-])c1cccc(C2N3CCCCC3[C@@H]3c4[nH]c5ccccc5c4CCN23)c1 (stereo partly specified),,> 100
O=[N+]([O-])c1cc(Cl)c(Cl)c([N+](=O)[O-])c1Cl,0.763,3.36
Cc1c[nH]c2c(O)cc3c(c12)[C@H](CCl)CN3C(=O)c1cc2cc(NC(=O)Nc3ccc4[nH]c(C(=O)N5C[C@@H](CCl)c6c5cc(O)c5[nH]cc(C)c65)cc4c3)ccc2[nH]1,0.0068,
CCOC(=O)NC(=O)c1cn(CC(=O)NCC(=O)NCC(=O)NCCCN2CCN(CCCNC(=O)CNC(=O)CNC(=O)Cn3cc(C(=O)NC(=O)OCC)c(=O)[nH]c3=O)CC2)c(=O)[nH]c1=O,,> 100
CC[C@@H]1OC2(C)CC(S(=O)(=O)c3ccccc3O)CC1O2 (stereo partly specified),,> 100
CCOC(=O)C(N)C[S][Sn]([CH3])([CH3])[Cl] (stereo unspecified),> 100,> 100
NNC(=O)/C(=C/c1ccc(Cl)c(Cl)c1)NC(=O)c1ccccc1,,> 100
CC(=O)OCC1OC(N2C(=O)C(=O)c3cc(C)ccc32)C(OC(C)=O)C(OC(C)=O)C1OC(C)=O (stereo unspecified),,> 100
O=C1c2ccccc2-c2cccc3ccc(Cc4ccc5ccccc5c4)c1c23,,> 100
Cc1cc(C)c([O-])c(CN(C)CCN(C)Cc2cc(C)cc(C)c2[O-])c1.O=C([O-])c1cccc(C(=O)[O-])n1.[Ti+4],2.89,> 100
CCOC(=O)C(Cc1c[nH]c2ccc(N)cc12)(NC(C)=O)C(=O)OCC,> 1000,> 1000
COc1cc(Cl)c2c3c(c(C(C)=O)oc13)CCC2,,> 100
Nc1ccc(N(S(=O)(=O)c2ccccc2)S(=O)(=O)c2ccccc2)c(Cl)c1,,> 100

SMILES,GI50 [µM],TGI [µM]
CCCCc1c2c(nc3c1CCC/C3=C\c1ccccc1)C(=O)CCC2,,45
COc1ccc([N+]2=NC(c3ccc([N+](=O)[O-])cc3)=NN(c3ccccc3)C2)cc1,,> 100
C=CC1(C(=O)O)CCC(C(C)(C)C)CC1 (stereo unspecified),,> 100
NC(=O)C(=Cc1ccc(C(O)P(=O)(O)O)cc1)C(N)=O (stereo unspecified),,> 100
CSc1nc(C)c2c(n1)SCC2,,> 10
CCC1(CC)C(=O)OC(=O)C1(CC)CC,,> 100
CC(C)(C#N)c1cc(Cn2cncn2)cc(C(C)(C)C#N)c1,> 10000,> 10000
C=CCC(N[C@H](CO)c1ccccc1)c1ccc2ccccc2n1 (stereo partly specified),> 100,> 100
O=C(Nc1cc(Cl)c(Cl)cc1Cl)C(=O)C1C=CCS1(=O)=O (stereo unspecified),,> 100
CCNC(=O)CCN(C(=O)O)S(=O)(=O)c1ccc(NC(=O)c2ccccc2)cc1,,32
O=C(/C=C/c1ccc([N+](=O)[O-])o1)N1CCN(Cc2ccccc2)CC1,,21.6
CC1C[C@@]2(c3ccccc3)C(=O)CCC[C@H]2N1 (stereo partly specified),,> 100
O=[N+]([O-])c1cccc(/C=N\NS(=O)(=O)c2ccc(Cl)cc2)c1O,,> 100
CC(C)c1ccc(C(=O)Nc2nc3ccc(O)cc3s2)cc1,0.552,> 100
CC1=C(C(=O)Nc2ccccc2C)C(c2ccc(Cl)c(Cl)c2)C(C(=O)Nc2ccccc2C)=C(C)N1,,> 100
CCCCOC(=O)NC(=O)c1cn(CCCOC(=O)CCCCCCCCC(=O)OCCCn2cc(C(=O)NC(=O)OCCCC)c(=O)[nH]c2=O)c(=O)[nH]c1=O,,> 100
Cc1[nH]c2ccccc2c1C1Cc2ccccc2N1C(=O)/C=C\C(=O)O (stereo unspecified),,> 100
CCN(CC)CCC(=O)NC1c2ccc(Cl)cc2Oc2c(C)cccc21 (stereo unspecified),,33.2

# System: TK-10 renal
# Experiment: DTP human tumour cell line panel, 48 h
SMILES,GI50 [µM],TGI [µM]
COc1cc(/C=C/C(=O)CC(=O)/C=C/c2cc(OC)c(OC)c(OC)c2)cc(OC)c1OC,4.08,19.2
c1ccc2c(c1)CCC/C2=N\OCC1CO1 (stereo unspecified),,> 100
CC/C(C)=C1\CCC(CN2CCOCC2)C1=O (stereo unspecified),,28
COC(=O)C1C(C(=O)OC)C2(OC)c3ccccc3-c3ccccc3C12 (stereo unspecified),,> 100
O=C1OC(CC(=O)c2ccc(Cl)c(Cl)c2)C(Cl)=C1Cl (stereo unspecified),,> 100
CC(=O)c1cccc(N2COC(C)(C)c3nc4ccccc4n3C2)c1,,> 100
O=[N+]([O-])c1cccc(C2N3CCCCC3[C@@H]3c4[nH]c5ccccc5c4CCN23)c1 (stereo partly specified),,35.4
O=[N+]([O-])c1cc(Cl)c(Cl)c([N+](=O)[O-])c1Cl,1.53,2.99
CCOC(=O)NC(=O)c1cn(CC(=O)NCC(=O)NCC(=O)NCCCN2CCN(CCCNC(=O)CNC(=O)CNC(=O)Cn3cc(C(=O)NC(=O)OCC)c(=O)[nH]c3=O)CC2)c(=O)[nH]c1=O,,> 100
O=S(=O)(N/N=C/c1ccc(/C=N/NS(=O)(=O)c2ccccc2)cc1)c1ccccc1,,> 100
CCOC(=O)C(N)C[S][Sn]([CH3])([CH3])[Cl] (stereo unspecified),> 100,> 100
NNC(=O)/C(=C/c1ccc(Cl)c(Cl)c1)NC(=O)c1ccccc1,,> 100
COc1ccc([N+](=O)[O-])c2c(NCCCN(C)C)c3ccccc3nc12,,2.43
CC(=O)OCC1OC(N2C(=O)C(=O)c3cc(C)ccc32)C(OC(C)=O)C(OC(C)=O)C1OC(C)=O (stereo unspecified),,> 100
O=C1c2ccccc2-c2cccc3ccc(Cc4ccc5ccccc5c4)c1c23,,> 100
Cc1cc(C)c([O-])c(CN(C)CCN(C)Cc2cc(C)cc(C)c2[O-])c1.O=C([O-])c1cccc(C(=O)[O-])n1.[Ti+4],1.71,5.47
CCOC(=O)C(Cc1c[nH]c2ccc(N)cc12)(NC(C)=O)C(=O)OCC,> 1000,> 1000
COc1cc(Cl)c2c3c(c(C(C)=O)oc13)CCC2,,> 100
Nc1ccc(N(S(=O)(=O)c2ccccc2)S(=O)(=O)c2ccccc2)c(Cl)c1,,> 100

SMILES,GI50 [µM],TGI [µM]
CCCCc1c2c(nc3c1CCC/C3=C\c1ccccc1)C(=O)CCC2,,72.4
COc1ccc([N+]2=NC(c3ccc([N+](=O)[O-])cc3)=NN(c3ccccc3)C2)cc1,,> 100
C=CC1(C(=O)O)CCC(C(C)(C)C)CC1 (stereo unspecified),,> 100
NC(=O)C(=Cc1ccc(C(O)P(=O)(O)O)cc1)C(N)=O (stereo unspecified),,> 100
CSc1nc(C)c2c(n1)SCC2,,> 10
CCC1(CC)C(=O)OC(=O)C1(CC)CC,,> 100
CC(C)(C#N)c1cc(Cn2cncn2)cc(C(C)(C)C#N)c1,564,> 10000
C=CCC(N[C@H](CO)c1ccccc1)c1ccc2ccccc2n1 (stereo partly specified),> 100,> 100
O=C(Nc1cc(Cl)c(Cl)cc1Cl)C(=O)C1C=CCS1(=O)=O (stereo unspecified),,> 100
CCNC(=O)CCN(C(=O)O)S(=O)(=O)c1ccc(NC(=O)c2ccccc2)cc1,,> 100
O=C(/C=C/c1ccc([N+](=O)[O-])o1)N1CCN(Cc2ccccc2)CC1,,37.9
CC1C[C@@]2(c3ccccc3)C(=O)CCC[C@H]2N1 (stereo partly specified),,> 100
O=[N+]([O-])c1cccc(/C=N\NS(=O)(=O)c2ccc(Cl)cc2)c1O,,> 100
CC(C)c1ccc(C(=O)Nc2nc3ccc(O)cc3s2)cc1,8.98,> 100
CC1=C(C(=O)Nc2ccccc2C)C(c2ccc(Cl)c(Cl)c2)C(C(=O)Nc2ccccc2C)=C(C)N1,,> 100
CCCCOC(=O)NC(=O)c1cn(CCCOC(=O)CCCCCCCCC(=O)OCCCn2cc(C(=O)NC(=O)OCCCC)c(=O)[nH]c2=O)c(=O)[nH]c1=O,,> 100
Cc1[nH]c2ccccc2c1C1Cc2ccccc2N1C(=O)/C=C\C(=O)O (stereo unspecified),,> 100
CCN(CC)CCC(=O)NC1c2ccc(Cl)cc2Oc2c(C)cccc21 (stereo unspecified),,27.9
